Source: patent US20030125264A1, “Methods For Treating Wounds” (Kimberly-Clark Worldwide, Inc., priority 2001, published 2003)

Tested on: human foreskin fibroblasts (ATCC cell line CRL-2522)
Experiment: proliferative response of human skin fibroblasts to flavonoids (96-well, Cell Titer 96 Aqueous One, absorbance 490 nm)
Format: cell-based
Conditions: for difference in cell proliferation between controls and test compound (one-way ANOVA): P<0.01 and 0.05, vehicle control 0.1% DMSO in DMEM, n=6; for cell proliferating effect on human skin fibroblasts: at lower concentrations (samples tested at 10^-4, 10^-5 and 10^-6 M; 28 hours, serum-free DMEM, 0.1% DMSO, n=6)
Method: The proliferative response of flavonoids to the human skin fibroblast cell line (ATCC, Manassas, Va., cell line CRL-2522 human foreskin fibroblast) was determined in a 96-well assay system using serum-free medium as a control. Stock solutions of flavonoids were prepared as 1.0 mole/L solutions in Dimethyl sulfoxide (DMSO, Sigma Chemical Company, St. Louis, Mo.) then diluted with Dulbecco's Modified Eagle's Medium (DMEM, Sigma Chemical Co., St. Louis, Mo.) to 10^−4, 10^−5, and 10^−6 M solutions with a final DMSO concentration of 0.1% (v:v). Cells were seeded into 96 well plates at a concentration of 2×10^3 cells in 100 μl of DMEM containing 10% fetal bovine serum (FBS, Sigma Chemical Co., St. Louis, Mo.). Plates were incubated for 24 hours at 37° C. in a humidified, 5% CO2 atmosphere. After incubation, the medium was aspirated and the wells were rinsed twice with 100 μl of serum-free DMEM. The final rinse was aspirated and 100 μl of the 10^−4-10^−6 M of each solution was added to 6 wells. In addition, 100 μl of vehicle (serum free DMEM with DMSO at 0.1% v:v) was added to 6 wells as control. In addition, duplicate wells of each test and control solution were placed in wells without the human fibroblast cells to serve as blanks for each treatment. All wells were incubated for 28 hours at 37° C. in a humidified, 5% CO2 atmosphere. After incubation, 20 μl of Cell Titer 96 Aqueous One Solution Reagent (Promega, Corp., Madison, Wis.) was added to all wells. The plates were swirled gently and place back in the incubator for 45 minutes and spectrophotometric absorbance was read at 490 nm. Absorbance of the wells without cells was subtracted from the absorbance of the wells with cells to give the true absorbance. Various compounds of present invention were tested for their cell proliferating effect on human skin fibroblasts. The effect of flavonoids naringin and quercetin on cell proliferation in human foreskin fibroblasts (ATCC cell line CRL-2522) was measured and data is presented in FIG. 1. The control and all test materials contained a final concentration of 0.1% DMSO in DMEM with n=6. Sample concentrations were 10^−4, 10^−5 and 10^−6 M. Statistical analysis was done by using one-way ANOVA.

Row | SMILES | difference in cell proliferation between controls and test compound (one-way ANOVA) | cell proliferating effect on human skin fibroblasts | cell growth relative to the control (at higher concentrations (samples tested at 10^-4, 10^-5 and 10^-6 M; 28 hours, serum-free DMEM, 0.1% DMSO, n=6))
1 | C[C@@H]1O[C@@H](O[C@H]2[C@H](Oc3cc(O)c4c(c3)O[C@H](c3ccc(O)cc3)CC4=O)O[C@H](CO)[C@@H](O)[C@@H]2O)[C@H](O)[C@H](O)[C@H]1O [naringin] | Statistically significant difference | good cell proliferating agents | –
2 | O=c1c(O)c(-c2ccc(O)c(O)c2)oc2cc(O)cc(O)c12 [quercetin] | Statistically significant difference | good cell proliferating agents | appears to show cell inhibition
